Measurements: patent publication US10226471B2, “Modified-release dosage forms of 5-HT2C agonists useful for weight management” (Arena Pharmaceuticals, Inc., priority 2010, dated 2019)

Test: Dynamic moisture-sorption (DMS)
Assay type: physicochemical
Conditions: for hygroscopicity by DMS: isotherm 25° C.
Method: Dynamic moisture-sorption (DMS) studies were conducted using a dynamic moisture-sorption analyzer, VTI Corporation, SGA-100, equipment #0228. Samples were prepared for DMS analysis by placing 5 mg to 20 mg of a sample in a tared sample holder. The sample was placed on the hang-down wire of the VTI balance. A drying step was run, typically at 40° C. and 0.5-1% RH for 1-2 h. The isotherm temperature is 25° C. Defined % RH holds typically ranged from 10% RH to 90% RH or 95% RH, with intervals of 10 to 20% RH. A % weight change smaller than 0.010% over a specified number of minutes (typically 10-20), or up to 2 h, whichever occurs first, is required before continuing to the next % RH hold. The water content of the sample equilibrated as described above was determined at each % RH hold.

[1] = out to and including the 90% RH hold at 25° C.

C[C@H]1CNCCc2ccc(Cl)cc21.C[C@H]1CNCCc2ccc(Cl)cc21.O=S(=O)(O)c1cccc2c(S(=O)(=O)O)cccc12 [Compound 1 heminapadisilate salt]
hygroscopicity by DMS: non-hygroscopic | DMS weight gain at 90% RH [1]: about 0.68% | DMS weight gain at 90% RH (out to and including the 90% RH hold at 25° C., Form I): FIG. 31: ~0.68% weight gain at about 90% RH

C[C@H]1CNCCc2ccc(Cl)cc21.C[C@H]1CNCCc2ccc(Cl)cc21.Cl.Cl.O
hygroscopicity by DMS: substantially non-hygroscopic | hygroscopicity by DMS (listed as Compound 1 Hydrochloride Salt Hemihydrate, Form III): FIG. 4: non-hygroscopic | water adsorbed in DMS [1]: less than 0.5 wt %
